{"source": "paper PMC12396409", "about": "“Screening and hit evaluation of a microbial metabolite library against the pathogenic Plasmodium falciparum and Toxoplasma gondii parasites” (International Journal for Parasitology: Drugs and Drug …, 2025)", "key": {"[1]": {"system": "P. falciparum 3D7 parasites", "experiment": "P. falciparum growth inhibition assay, 2-cycle (120 h treatment), delayed-death screen and dose-response", "type": "cell-based, Plasmodium falciparum", "settings": "% growth; for Pf_120h_%Growth_Rep1: replicate 1; for Pf_120h_%Growth_Rep2: replicate 2"}, "[2]": {"system": "T. gondii RH strain (RH-Tub-eYFP) tachyzoites", "experiment": "microbe, parasite or virus in culture", "type": "cell-based, Toxoplasma gondii", "settings": "72 h, % growth; for Tg_72h_%Growth_Rep1: replicate 1; for Tg_72h_%Growth_Rep2: replicate 2"}, "[3]": {"system": "P. falciparum 3D7 parasites", "experiment": "P. falciparum growth inhibition assay, 1-cycle (72 h treatment), SYBR DNA staining (library screen at 2 μg/mL and dose-response)", "type": "cell-based, Plasmodium falciparum", "settings": "for Pf_72h_%Growth_Rep1 / Pf_72h_%Growth_Rep2: % growth; for Pf_72h_%Growth_Rep1: replicate 1; for Pf_72h_%Growth_Rep2: replicate 2"}, "[4]": {"settings": "library screen at 2 μg/mL, 120 h"}, "[5]": {"settings": "library screen at 2 μg/mL, 72 h"}, "[6]": {"settings": "P. falciparum, 120 h, parasite screen 2 μg/mL"}, "[7]": {"settings": "T. gondii, parasite screen 2 μg/mL"}, "[8]": {"settings": "P. falciparum, 72 h, parasite screen 2 μg/mL"}, "[9]": {"settings": "P. falciparum 3D7, 120 h, parasite screen at 2 μg/mL"}, "[10]": {"settings": "T. gondii, parasite screen at 2 μg/mL"}, "[11]": {"settings": "P. falciparum 3D7, 72 h, parasite screen at 2 μg/mL"}, "[12]": {"settings": "P. falciparum 3D7, 120 h, library screen at 2 μg/mL"}, "[13]": {"settings": "T. gondii RH, library screen at 2 μg/mL"}, "[14]": {"settings": "P. falciparum 3D7, 72 h, library screen at 2 μg/mL"}}}
{"smiles": "CC1=C[C@H]2O[C@@H]3[C@H](O)C[C@](C)([C@@]2(CO)[C@H](O)C1=O)[C@]31CO1", "note": "[Deoxynivalenol]", "values": [{"measurement": "Pf_120h_%Growth_Rep1", "setting": "[1]; [4]", "result": 19.31, "unit": "%"}, {"measurement": "Pf_120h_%Growth_Rep2", "setting": "[1]; [4]", "result": 5.93, "unit": "%"}, {"measurement": "Tg_72h_%Growth_Rep1", "setting": "[2]; library screen at 2 μg/mL", "result": -0.04, "unit": "%"}, {"measurement": "Tg_72h_%Growth_Rep2", "setting": "[2]; library screen at 2 μg/mL", "result": 0.56, "unit": "%"}, {"measurement": "Pf_72h_%Growth_Rep1", "setting": "[3]; [5]", "result": -0.53, "unit": "%"}, {"measurement": "Pf_72h_%Growth_Rep2", "setting": "[3]; [5]", "result": -5.17, "unit": "%"}]}
{"smiles": "CN1C(=O)c2ccccc2-n2c(nc3ccccc3c2=O)/C1=C\\c1ccccc1", "note": "[Benzomalvin B]", "values": [{"measurement": "Pf_120h_%Growth_Rep1", "setting": "[1]; [4]", "result": 2.26, "unit": "%"}, {"measurement": "Pf_120h_%Growth_Rep2", "setting": "[1]; [4]", "result": 61.47, "unit": "%"}, {"measurement": "Tg_72h_%Growth_Rep1", "setting": "[2]; library screen at 2 μg/mL", "result": 108.53, "unit": "%"}, {"measurement": "Tg_72h_%Growth_Rep2", "setting": "[2]; library screen at 2 μg/mL", "result": 82.96, "unit": "%"}, {"measurement": "Mean", "setting": "[3]; P. falciparum, 72 h, 2 μg/mL, mean of both replicates, growth (% of control)", "result": 40.89}, {"measurement": "Pf_72h_%Growth_Rep1", "setting": "[3]; [5]", "result": 1.98, "unit": "%"}, {"measurement": "Pf_72h_%Growth_Rep2", "setting": "[3]; [5]", "result": 79.80, "unit": "%"}]}
{"smiles": "CO[C@@H]1[C@H](N(C)C(=O)c2ccccc2)C[C@H]2O[C@]1(C)n1c3ccccc3c3c4c(c5c6ccccc6n2c5c31)C(=O)NC4=O", "note": "[Stauprimide]", "values": [{"measurement": "Pf_120h_%Growth_Rep1", "setting": "[1]; [6]", "result": 32.82, "unit": "%"}, {"measurement": "Pf_120h_%Growth_Rep2", "setting": "[1]; [6]", "result": 11.28, "unit": "%"}, {"measurement": "Tg_72h_%Growth_Rep1", "setting": "[2]; [7]", "result": 9.90, "unit": "%"}, {"measurement": "Tg_72h_%Growth_Rep2", "setting": "[2]; [7]", "result": 20.75, "unit": "%"}, {"measurement": "Pf_72h_%Growth_Rep1", "setting": "[3]; [8]", "result": 1.11, "unit": "%"}, {"measurement": "Pf_72h_%Growth_Rep2", "setting": "[3]; [8]", "result": -9.03, "unit": "%"}]}
{"smiles": "Cn1c(=O)/c(=C/c2ccccc2)[nH]c(=O)/c1=C/c1ccccc1", "note": "[BIA-P1156]", "values": [{"measurement": "Pf_120h_%Growth_Rep1", "setting": "[1]; [9]", "result": 81.04, "unit": "%"}, {"measurement": "Pf_120h_%Growth_Rep2", "setting": "[1]; [9]", "result": 137.39, "unit": "%"}, {"measurement": "Tg_72h_%Growth_Rep1", "setting": "[2]; [10]", "result": 116.90, "unit": "%"}, {"measurement": "Tg_72h_%Growth_Rep2", "setting": "[2]; [10]", "result": 94.03, "unit": "%"}, {"measurement": "Pf_72h_%Growth_Rep1", "setting": "[3]; [11]", "result": 84.26, "unit": "%"}, {"measurement": "Pf_72h_%Growth_Rep2", "setting": "[3]; [11]", "result": 90.89, "unit": "%"}]}
{"smiles": "C=C(NC(=O)C(=C)NC(=O)c1csc(C2=N[C@@H]3c4csc(n4)[C@H]4NC(=O)c5csc(n5)[C@H]([C@](C)(O)[C@@H](C)O)NC(=O)[C@H]5CSC(=N5)/C(=C/C)NC(=O)[C@H]([C@@H](C)O)NC(=O)c5csc(n5)[C@]3(CC2)NC(=O)[C@H](C)NC(=O)C(=C)NC(=O)C(=C)NC(=O)[C@H](C(C)C)N[C@@H]2C=Cc3c([C@H](C)O)cc(nc3[C@H]2O)C(=O)O[C@@H]4C)n1)C(N)=O", "note": "[Siomycin A]", "values": [{"measurement": "Pf_120h_%Growth_Rep1", "setting": "[1]; [6]", "result": 88.55, "unit": "%"}, {"measurement": "Pf_120h_%Growth_Rep2", "setting": "[1]; [6]", "result": 55.07, "unit": "%"}, {"measurement": "Tg_72h_%Growth_Rep1", "setting": "[2]; [7]", "result": 94.53, "unit": "%"}, {"measurement": "Tg_72h_%Growth_Rep2", "setting": "[2]; [7]", "result": 80.70, "unit": "%"}, {"measurement": "Pf_72h_%Growth_Rep1", "setting": "[3]; [8]", "result": 88.11, "unit": "%"}, {"measurement": "Pf_72h_%Growth_Rep2", "setting": "[3]; [8]", "result": 105.15, "unit": "%"}]}
{"smiles": "CCCCC/C=C/C=C\\C=C/[C@H](O)[C@H](C)[C@H](C/C=C/[C@@H]1OC(=O)C=C[C@@H]1O)OS(=O)(=O)[O-].[Na+]", "note": "[Sultriecin]", "values": [{"measurement": "Pf_120h_%Growth_Rep1", "setting": "[1]; [6]", "result": 87.78, "unit": "%"}, {"measurement": "Pf_120h_%Growth_Rep2", "setting": "[1]; [6]", "result": 130.19, "unit": "%"}, {"measurement": "Tg_72h_%Growth_Rep1", "setting": "[2]; [7]", "result": 105.98, "unit": "%"}, {"measurement": "Tg_72h_%Growth_Rep2", "setting": "[2]; [7]", "result": 90.75, "unit": "%"}, {"measurement": "Pf_72h_%Growth_Rep1", "setting": "[3]; [8]", "result": 90.74, "unit": "%"}, {"measurement": "Pf_72h_%Growth_Rep2", "setting": "[3]; [8]", "result": 116.83, "unit": "%"}]}
{"smiles": "CSc1cc(=O)n2c3ccccc3c3ccnc1c32", "note": "[BIA-M1959]", "values": [{"measurement": "Pf_120h_%Growth_Rep1", "setting": "[1]; [9]", "result": 177.81, "unit": "%"}, {"measurement": "Pf_120h_%Growth_Rep2", "setting": "[1]; [9]", "result": 100.67, "unit": "%"}, {"measurement": "Tg_72h_%Growth_Rep1", "setting": "[2]; [10]", "result": 88.90, "unit": "%"}, {"measurement": "Tg_72h_%Growth_Rep2", "setting": "[2]; [10]", "result": 111.29, "unit": "%"}, {"measurement": "Pf_72h_%Growth_Rep1", "setting": "[3]; [11]", "result": 72.92, "unit": "%"}, {"measurement": "Pf_72h_%Growth_Rep2", "setting": "[3]; [11]", "result": 92.02, "unit": "%"}]}
{"smiles": "CC1(C)CCC[C@]2(C)[C@@H](CO)C(CO)=CC[C@@H]12", "note": "[Drimendiol]", "values": [{"measurement": "Pf_120h_%Growth_Rep1", "setting": "[1]; [4]", "result": 96.59, "unit": "%"}, {"measurement": "Pf_120h_%Growth_Rep2", "setting": "[1]; [4]", "result": 92.13, "unit": "%"}, {"measurement": "Tg_72h_%Growth_Rep1", "setting": "[2]; library screen at 2 μg/mL", "result": 182.34, "unit": "%"}, {"measurement": "Tg_72h_%Growth_Rep2", "setting": "[2]; library screen at 2 μg/mL", "result": 100.93, "unit": "%"}, {"measurement": "Pf_72h_%Growth_Rep1", "setting": "[3]; [5]", "result": 88.42, "unit": "%"}, {"measurement": "Pf_72h_%Growth_Rep2", "setting": "[3]; [5]", "result": 85.66, "unit": "%"}]}
{"smiles": "CC1=C[C@@H]2/C=C(/C)CCC(=O)[C@@H](O)CCC(=O)[C@]23C(=O)N[C@@H](CC(C)C)[C@@H]3[C@@H]1C", "note": "[Aspochalasin M]", "values": [{"measurement": "Pf_120h_%Growth_Rep1", "setting": "[1]; [4]", "result": 80.74, "unit": "%"}, {"measurement": "Pf_120h_%Growth_Rep2", "setting": "[1]; [4]", "result": 79.20, "unit": "%"}, {"measurement": "Tg_72h_%Growth_Rep1", "setting": "[2]; library screen at 2 μg/mL", "result": 143.85, "unit": "%"}, {"measurement": "Tg_72h_%Growth_Rep2", "setting": "[2]; library screen at 2 μg/mL", "result": 96.90, "unit": "%"}, {"measurement": "Pf_72h_%Growth_Rep1", "setting": "[3]; [5]", "result": 78.34, "unit": "%"}, {"measurement": "Pf_72h_%Growth_Rep2", "setting": "[3]; [5]", "result": 81.89, "unit": "%"}]}
{"smiles": "CCC(C)C1OC2(CCC1C)CC1CC(CC=C(C)C(OC3CC(OC)C(O)C(C)O3)C(C)C=CC=C3COC4C(O)C(C)=CC(C(=O)O1)C34O)O2", "note": "(stereo not shown) [BIA-I1150]", "values": [{"measurement": "Pf_120h_%Growth_Rep1", "setting": "[1]; [12]", "result": 91.15, "unit": "%"}, {"measurement": "Pf_120h_%Growth_Rep2", "setting": "[1]; [12]", "result": 112.03, "unit": "%"}, {"measurement": "Tg_72h_%Growth_Rep1", "setting": "[2]; [13]", "result": 134.07, "unit": "%"}, {"measurement": "Tg_72h_%Growth_Rep2", "setting": "[2]; [13]", "result": 88.13, "unit": "%"}, {"measurement": "Pf_72h_%Growth_Rep1", "setting": "[3]; [14]", "result": 84.82, "unit": "%"}, {"measurement": "Pf_72h_%Growth_Rep2", "setting": "[3]; [14]", "result": 14.34, "unit": "%"}]}
{"smiles": "CCCCCC(O)C1C(=O)OC(C)C(O)C=CC=CC=CC=CC=C(C)C(O)C(O)C(O)CC(O)CC(O)CC(O)CC(O)CC1O", "note": "(stereo not shown) [BIA-L1613]", "values": [{"measurement": "Pf_120h_%Growth_Rep1", "setting": "[1]; [12]", "result": 95.83, "unit": "%"}, {"measurement": "Pf_120h_%Growth_Rep2", "setting": "[1]; [12]", "result": 112.04, "unit": "%"}, {"measurement": "Tg_72h_%Growth_Rep1", "setting": "[2]; [13]", "result": 108.01, "unit": "%"}, {"measurement": "Tg_72h_%Growth_Rep2", "setting": "[2]; [13]", "result": 85.53, "unit": "%"}, {"measurement": "Pf_72h_%Growth_Rep1", "setting": "[3]; [14]", "result": 78.48, "unit": "%"}, {"measurement": "Pf_72h_%Growth_Rep2", "setting": "[3]; [14]", "result": 58.30, "unit": "%"}]}
